Legend:
[1] = system: ducksalad (Heteranthera limosa); assay: Test B flooded paddy test, visual rating 0-100; conditions: Flood, 250 g ai/ha, applied to paddy water, rated after 13 to 15 days
kochia (Kochia scoparia) [2] = assay: Test A preemergence, visual injury rating 0-100; format: in vivo
Excerpt: (§1) Seeds of plant species selected from barnyardgrass (Echinochloa crus-galli), kochia (Kochia scoparia), ragweed (common ragweed, Ambrosia elatior), ryegrass, Italian (Italian ryegrass, Lolium multiflorum), foxtail, giant (giant foxtail, Setaria faberii), foxtail, green (green foxtail, Setaria viridis), and pigweed (Amaranthus retroflexus) were planted into a blend of loam soil and sand and treated preemergence with a directed soil spray using test chemicals formulated in a non-phytotoxic solvent mixture which included a surfactant.
(§2) At the same time, plants selected from these weed species and also wheat (Triticum aestivum), corn (Zea mays), blackgrass (Alopecurus myosuroides), and galium (catchweed bedstraw, Galium aparine) were planted in pots containing the same blend of loam soil and sand and treated with postemergence applications of test chemicals formulated in the same manner. Plants ranged in height from 2 to 10 cm and were in the one- to two-leaf stage for the postemergence treatment. Treated plants and untreated controls were maintained in a greenhouse for approximately 10 days, after which time all treated plants were compared to untreated controls and visually evaluated for injury. […] A dash (-) response means no test result.

[3] = system: ryegrass, Italian (Italian ryegrass, Lolium multiflorum); assay: Test A preemergence, visual injury rating 0-100; format: in vivo
Excerpt: as §1, §2

[4] = system: ragweed (common ragweed, Ambrosia elatior); assay: Test A preemergence, visual injury rating 0-100; format: in vivo
Excerpt: as §1, §2

[5] = system: foxtail, giant (giant foxtail, Setaria faberii); assay: Test A preemergence, visual injury rating 0-100; format: in vivo
Excerpt: as §1, §2

[6] = system: pigweed (Amaranthus retroflexus); assay: Test A preemergence, visual injury rating 0-100; format: in vivo
Excerpt: as §1, §2

[7] = system: barnyardgrass (Echinochloa crus-galli); assay: Test B flooded paddy test, visual rating 0-100; conditions: Flood, 250 g ai/ha, applied to paddy water, rated after 13 to 15 days
rice (Oryza sativa) = assay: Test B flooded paddy test, visual rating 0-100 (0 no effect, 100 complete control); conditions: Flood, 250 g ai/ha, applied to paddy water, rated after 13 to 15 days
[8] = system: barnyardgrass (Echinochloa crus-galli); assay: Test A preemergence, visual injury rating 0-100 (0 no effect, 100 complete control); format: in vivo
Excerpt: as §1, §2

kochia (Kochia scoparia) [9] = assay: Test A postemergence, visual injury rating 0-100; format: in vivo; conditions: 0 to 100 scale
Excerpt: as §1, §2

[10] = system: ryegrass, Italian (Italian ryegrass, Lolium multiflorum); assay: Test A postemergence, visual injury rating 0-100; format: in vivo; conditions: 0 to 100 scale
Excerpt: as §1, §2

[11] = system: ragweed (common ragweed, Ambrosia elatior); assay: Test A postemergence, visual injury rating 0-100; format: in vivo; conditions: 0 to 100 scale
Excerpt: as §1, §2

[12] = system: blackgrass (Alopecurus myosuroides); assay: Test A postemergence, visual injury rating 0-100; format: in vivo; conditions: 0 to 100 scale
Excerpt: as §1, §2

[13] = system: foxtail, giant (giant foxtail, Setaria faberii); assay: Test A postemergence, visual injury rating 0-100; format: in vivo; conditions: 0 to 100 scale
Excerpt: as §1, §2

[14] = system: wheat (Triticum aestivum); assay: Test A postemergence, visual injury rating 0-100; format: in vivo; conditions: 0 to 100 scale
Excerpt: as §1, §2

corn (Zea mays) = assay: Test A postemergence, visual injury rating 0-100; format: in vivo; conditions: 0 to 100 scale
Excerpt: as §1, §2

[15] = system: barnyardgrass (Echinochloa crus-galli); assay: Test A postemergence, visual injury rating 0-100; format: in vivo; conditions: 0 to 100 scale
Excerpt: as §1, §2

[16] = system: galium (catchweed bedstraw, Galium aparine); assay: Test A postemergence, visual injury rating 0-100; format: in vivo; conditions: 0 to 100 scale
Excerpt: as §1, §2

[17] = system: pigweed (Amaranthus retroflexus); assay: Test A postemergence, visual injury rating 0-100; format: in vivo; conditions: 0 to 100 scale
Excerpt: as §1, §2

[18] = 125 g ai/ha, 0 to 100 scale (0 no effect, 100 complete control), approx. 10 days

Compound | Ducksalad plant response rating (0 to 100 scale) [1] | Kochia plant response rating (0 to 100 scale) (kochia (Kochia scoparia) [2]; 500 g ai/ha) | Ryegrass, Italian plant response rating (0 to 100 scale) ([3]; 500 g ai/ha) | Ragweed plant response rating (0 to 100 scale) ([4]; 500 g ai/ha) | Foxtail, Giant plant response rating (0 to 100 scale) ([5]; 500 g ai/ha) | Pigweed plant response rating (0 to 100 scale) ([6]; 500 g ai/ha) | Barnyardgrass plant response rating (0 to 100 scale) [7] | Rice plant response rating (0 to 100 scale) (rice (Oryza sativa)) | Barnyardgrass plant response rating (0 to 100 scale) ([8]; 500 g ai/ha) | Kochia plant response rating (kochia (Kochia scoparia) [9]; 125 g ai/ha) | Kochia plant response rating (kochia (Kochia scoparia) [9]; 500 g ai/ha) | Ryegrass, Italian plant response rating ([10]; 125 g ai/ha) | Ryegrass, Italian plant response rating ([10]; 500 g ai/ha) | Ragweed plant response rating ([11]; 125 g ai/ha) | Ragweed plant response rating ([11]; 500 g ai/ha) | Blackgrass plant response rating ([12]; 125 g ai/ha) | Blackgrass plant response rating ([12]; 500 g ai/ha) | Foxtail, Giant plant response rating ([13]; 125 g ai/ha) | Foxtail, Giant plant response rating ([13]; 500 g ai/ha) | Wheat plant response rating ([14]; 125 g ai/ha) | further results
CC1=[N+]([O-])C(C(=O)Nc2cccc(F)c2F)C(c2ccc(C(F)(F)F)c(Cl)c2)C1 (racemic) [Compound 102] | 0 | 80 | 90 | 80 | 90 | 90 | 0 | 0 | 90 | 30 | 40 | 40 | 50 | 20 | 50 | 60 | 80 | 70 | 80 | 20 | Kochia plant response rating (0 to 100 scale) (kochia (Kochia scoparia) [2]; 125 g ai/ha): 10; Ryegrass, Italian plant response rating (0 to 100 scale) ([3]; 125 g ai/ha): 70; Ragweed plant response rating (0 to 100 scale) ([4]; 125 g ai/ha): 50; Foxtail, Giant plant response rating (0 to 100 scale) ([5]; 125 g ai/ha): 90; Pigweed plant response rating (0 to 100 scale) ([6]; 125 g ai/ha): 60; Barnyardgrass plant response rating (0 to 100 scale) ([8]; 125 g ai/ha): 80; Wheat plant response rating ([14]; 500 g ai/ha): 40; Corn plant response rating (corn (Zea mays); 125 g ai/ha): 40; Corn plant response rating (corn (Zea mays); 500 g ai/ha): 40; Barnyardgrass plant response rating ([15]; 125 g ai/ha): 70; Barnyardgrass plant response rating ([15]; 500 g ai/ha): 80; Galium plant response rating ([16]; 125 g ai/ha): 50; Galium plant response rating ([16]; 500 g ai/ha): 70; Pigweed plant response rating ([17]; 125 g ai/ha): 30; Pigweed plant response rating ([17]; 500 g ai/ha): 70
CC1=[N+]([O-])C(C(=O)Nc2cccc(F)c2F)C(c2cc(C)cc(C)c2)C1 (racemic) [Compound 112] | 45 | 90 | 100 | 80 | 100 | 70 | 70 | 0 | 100 | 0 | 20 | 40 | 90 | 0 | 60 | 80 | 80 | 90 | 90 | 40 | Kochia plant response rating (0 to 100 scale) (kochia (Kochia scoparia) [2]; 125 g ai/ha): 50; Ragweed plant response rating (0 to 100 scale) ([4]; 125 g ai/ha): 40; Foxtail, Giant plant response rating (0 to 100 scale) ([5]; 125 g ai/ha): 90; Pigweed plant response rating (0 to 100 scale) ([6]; 125 g ai/ha): 0; Barnyardgrass plant response rating (0 to 100 scale) ([8]; 125 g ai/ha): 90; Wheat plant response rating ([14]; 500 g ai/ha): 70; Corn plant response rating (corn (Zea mays); 125 g ai/ha): 80; Corn plant response rating (corn (Zea mays); 500 g ai/ha): 90; Barnyardgrass plant response rating ([15]; 125 g ai/ha): 70; Barnyardgrass plant response rating ([15]; 500 g ai/ha): 90; Galium plant response rating ([16]; 125 g ai/ha): 50; Galium plant response rating ([16]; 500 g ai/ha): 70; Pigweed plant response rating ([17]; 125 g ai/ha): 0; Pigweed plant response rating ([17]; 500 g ai/ha): 0
CC1=[N+]([O-])C(C(=O)Nc2cccc(F)c2F)C(c2cc(F)ccc2C)C1 (racemic) [Compound 81] | 100 | 50 | 10 | 0 | 90 | 20 | 25 | 0 | 90 | 0 | 0 | 0 | 20 | 0 | 0 | 0 | 50 | 60 | 80 | 0 | Kochia plant response rating (0 to 100 scale) (kochia (Kochia scoparia) [2]; 125 g ai/ha): 0; Ryegrass, Italian plant response rating (0 to 100 scale) ([3]; 125 g ai/ha): 0; Ragweed plant response rating (0 to 100 scale) ([4]; 125 g ai/ha): 0; Foxtail, Giant plant response rating (0 to 100 scale) ([5]; 125 g ai/ha): 60; Pigweed plant response rating (0 to 100 scale) ([6]; 125 g ai/ha): 0; Barnyardgrass plant response rating (0 to 100 scale) ([8]; 125 g ai/ha): 90; Wheat plant response rating ([14]; 500 g ai/ha): 30; Corn plant response rating (corn (Zea mays); 125 g ai/ha): 20; Corn plant response rating (corn (Zea mays); 500 g ai/ha): 20; Barnyardgrass plant response rating ([15]; 125 g ai/ha): 80; Barnyardgrass plant response rating ([15]; 500 g ai/ha): 80; Galium plant response rating ([16]; 125 g ai/ha): 0; Galium plant response rating ([16]; 500 g ai/ha): 30; Pigweed plant response rating ([17]; 125 g ai/ha): 0; Pigweed plant response rating ([17]; 500 g ai/ha): 0
CC1=[N+]([O-])C(C(=O)Nc2cccc(F)c2F)C(c2cc(F)c(F)c(F)c2)C1 (centres unmarked) [Compound 95] | 100 | 70 | 90 | 80 | 100 | 80 | 80 | 0 | 90 | 30 | 50 | 40 | 70 | 0 | 20 | 60 | 70 | 80 | 90 | 10 | Kochia plant response rating (0 to 100 scale) (kochia (Kochia scoparia) [2]; 125 g ai/ha): 0; Ryegrass, Italian plant response rating (0 to 100 scale) ([3]; 125 g ai/ha): 30; Ragweed plant response rating (0 to 100 scale) ([4]; 125 g ai/ha): 20; Foxtail, Giant plant response rating (0 to 100 scale) ([5]; 125 g ai/ha): 90; Pigweed plant response rating (0 to 100 scale) ([6]; 125 g ai/ha): 20; Barnyardgrass plant response rating (0 to 100 scale) ([8]; 125 g ai/ha): 90; Wheat plant response rating ([14]; 500 g ai/ha): 60; Corn plant response rating (corn (Zea mays); 125 g ai/ha): 0; Corn plant response rating (corn (Zea mays); 500 g ai/ha): 50; Barnyardgrass plant response rating ([15]; 125 g ai/ha): 70; Barnyardgrass plant response rating ([15]; 500 g ai/ha): 80; Galium plant response rating ([16]; 125 g ai/ha): 0; Galium plant response rating ([16]; 500 g ai/ha): 50; Pigweed plant response rating ([17]; 125 g ai/ha): 0; Pigweed plant response rating ([17]; 500 g ai/ha): 20
CCC1=[N+]([O-])C(C(=O)Nc2cccc(F)c2F)C(c2ccc(C(F)(F)F)cc2)C1 (racemic) [Compound 120] | 70 | 70 | 70 | 80 | 90 | 60 | 15 | 0 | 90 | 0 | 30 | 0 | 0 | 0 | 40 | 0 | 20 | 0 | 80 | 0 | Kochia plant response rating (kochia (Kochia scoparia) [2]; [18]): 0; Ryegrass, Italian plant response rating [3, 18]: 0; Foxtail, Giant plant response rating [5, 18]: 70; Pigweed plant response rating [6, 18]: 30; Barnyardgrass plant response rating [8, 18]: 80; Wheat plant response rating ([14]; 500 g ai/ha): 0; Corn plant response rating (corn (Zea mays); 125 g ai/ha): 0; Corn plant response rating (corn (Zea mays); 500 g ai/ha): 0; Barnyardgrass plant response rating ([15]; 125 g ai/ha): 20; Barnyardgrass plant response rating ([15]; 500 g ai/ha): 70; Galium plant response rating ([16]; 125 g ai/ha): 20; Galium plant response rating ([16]; 500 g ai/ha): 50; Pigweed plant response rating ([17]; 125 g ai/ha): 10; Pigweed plant response rating ([17]; 500 g ai/ha): 20

Reference: patent publication US11498899B2, “Nitrone herbicides” (FMC Corporation, priority 2016, dated 2022)
